In patent US20120129884A1, “PHOTOCHEMOTHERAPEUTIC HETEROCYCLIC AGENTS HAVING ANTIPROLIFERATIVE AND ANTINEOPLASTIC ACTIVITY” (UNIVERSITA DEGLI STUDI DI PADOVA, priority 2009, published 2012):

Assays:
[1] = tested on: colon adenocarcinoma (LoVo); experiment: Phototoxicity after UV-A irradiation, MTT test; assay type: cell-based, human; settings: mean ± SEM
Protocol: (§1) The evaluation of phototoxic activity was carried out in some human tumour cell lines: T-cell leukaemia (Jurkat), chronic myeloid leukaemia (K-562), colon adenocarcinoma (LoVo) and breast adenocarcinoma (MCF-7). Cellular survival experiments were carried out without irradiation to verify an eventual toxicity of photosensitizer in the dark, and then after two times of irradiation (10 and 15 min of UV-A, which correspond to 2.5 and 3.75 J/cm^2, respectively), using lamps which emit mainly at 365 nm. Cell survival was checked after 72 h of compound incubation or after 72 h from UVA irradiation by Mosmann's MTT reduction test (3-[4,5-dimethyltiazol-2yl] 2,5-diphenyl tetrazolium bromide), (T. Mossman, Rapid colorimetric assay for cellular growth and survival: application to proliferation and cytotoxicity assays, J. Immunol. Meths. 1983, 65, 55-63). […] In Table 2, there are GI50 values, that is the compound concentration required for 50% cell survival, for each cell line and for every time of irradiation.

[2] = tested on: chronic myeloid leukaemia (K-562); experiment: Phototoxicity after UV-A irradiation, MTT test; assay type: cell-based, human; settings: mean ± SEM
Protocol: as §1

[3] = tested on: breast adenocarcinoma (MCF-7); experiment: Phototoxicity after UV-A irradiation, MTT test; assay type: cell-based, human; settings: mean ± SEM
Protocol: as §1

[4] = tested on: T-cell leukaemia (Jurkat); experiment: Phototoxicity after UV-A irradiation, MTT test; assay type: cell-based, human; settings: mean ± SEM
Protocol: as §1

[5] = tested on: human tumour cell lines (Jurkat, K-562, LoVo, MCF-7); experiment: Phototoxicity / dark toxicity in all tested human tumour cell lines, MTT test; assay type: cell-based; settings: after UVA irradiation
Protocol: as §1

Jurkat cells = experiment: Mitochondrial membrane potential by JC-1 probe after irradiation; assay type: cell-based, human; settings: JC-1, 2 h from irradiation, with respect to control
Protocol: Other two tests were performed to have more information about the mechanism of action and to evaluate which organelles were involved in this process. […] (X. Wang, The expanding role of mitochondria in apoptosis, Gen. Develop. 2001, 15, 2922-2933). An eventual mitochondrial involvement in apoptosis induction was evaluated by such a parameter of mitochondrial dysfunction as the loss of mitochondrial membrane potential. Mitochondrial membrane potential of Jurkat cells was monitored by JC-1 probe after their irradiation in the presence of 9j, 9k and 9m (S. Salvioli, A. Ardizzoni, C. Franceschi, A. Cossarizza, JC-1, but not DiOC6(3) or rhodamine 123, is a reliable fluorescent probe to assess […] changes in intact cells: implications for studies on mitochondrial functionality during apoptosis, FEBS Lett. 1997, 411, 77-82).

plasmid (pBR322) DNA = experiment: Plasmid strand break / DNA photodamage experiments (Fpg, Endo III); assay type: biochemical; settings: pBR322, irradiated, Fpg and Endo III
Protocol: After having assessed a weak affinity toward this macromolecule in the dark by such spectroscopic techniques as linear dichroism and fluorimetric titrations, some plasmid (pBR322) strand break experiments were carried out to check an eventual DNA photodamage by compounds. The formation of open circular or linear DNA from a supercoiled plasmid DNA was monitored by the separation of the three forms using agarose gel horizontal electrophoresis. Beside the formation of frank strand breaks, oxidative damages to purine and pyrimidine bases were also evaluated, incubating the irradiated mixture with the repair enzyme Fpg (Formamidopyrimidine glycosylase) and Endo III (Endonuclase III), respectively. (B. Epe, M. Pflaum, S. Boiteux, DNA damage induced by photosensitizers in cellular and cell-free systems, Mut. Res. 1993, 299, 135-145; T. A. Ciulla, J. R. Van Camp, E. Rosenfeld, I. Kochevar, Photosensitization of single-strand breaks in pBR322 DNA by Rose Bengal, Photochem. Photobiol. 1989, 49, 293-298).

[6] = Homo sapiens, light or radiation study, 72 h, UV-A 2.5 J/cm^2, 72 h after irradiation
[7] = Homo sapiens, light or radiation study, 72 h, UV-A 3.75 J/cm^2, 72 h after irradiation
[8] = Homo sapiens, K562, light or radiation study, 72 h, K-562, UV-A 2.5 J/cm^2, 72 h after irradiation
[9] = Homo sapiens, K562, light or radiation study, 72 h, K-562, UV-A 3.75 J/cm^2, 72 h after irradiation
[10] = Homo sapiens, MCF7, light or radiation study, 72 h, MCF-7, UV-A 2.5 J/cm^2, 72 h after irradiation
[11] = Homo sapiens, MCF7, light or radiation study, 72 h, MCF-7, UV-A 3.75 J/cm^2, 72 h after irradiation
[12] = UV-A 2.5 J/cm^2, 72 h after irradiation
[13] = UV-A 3.75 J/cm^2, 72 h after irradiation
[14] = K-562, UV-A 2.5 J/cm^2, 72 h after irradiation
[15] = K-562, UV-A 3.75 J/cm^2, 72 h after irradiation
[16] = MCF-7, UV-A 2.5 J/cm^2, 72 h after irradiation
[17] = MCF-7, UV-A 3.75 J/cm^2, 72 h after irradiation

Compound | GI50 [1, 6] [nM] | GI50 [1, 7] [nM] | GI50 [2, 8] [nM] | GI50 [2, 9] [nM] | GI50 [3, 10] [nM] | GI50 [3, 11] [nM] | GI50 [4, 6] [nM] | GI50 [4, 7] [nM] | GI50 [1, 12] [nM] | GI50 [1, 13] [nM] | GI50 [2, 14] [nM] | GI50 [2, 15] [nM] | GI50 [3, 16] [nM] | GI50 [3, 17] [nM] | GI50 [4, 12] [nM] | GI50 [4, 13] [nM] | GI50 (phototoxic) [5] | cell percentage with collapsed mitochondrial potential (Jurkat cells) | DNA photodamage (photocleavage, oxidative damages in DNA bases) (plasmid (pBR322) DNA)
O=c1[nH]c2c(cc1S(=O)(=O)c1ccccc1)CCc1ccn(S(=O)(=O)c3ccccc3)c1-2 [Compound 9a, 1,7-bis(Phenylsulfonyl)-1,4,5,9-tetrahydro-8H-pyrrolo[3,2-h]quinolin-8-one] | > 20000 | > 20000 | > 20000 | > 20000 | > 20000 | > 20000 | > 20000 | > 20000 |  |  |  |  |  |  |  |  |  |  | 
COc1ccc(Cn2ccc3c2-c2[nH]c(=O)c(S(=O)(=O)c4ccccc4)cc2CC3)cc1 [Compound 9h, 1-(p-Methoxy-benzyl)-7-(phenylsulfonyl)-1,4,5,9-tetrahydro-8H-pyrrolo[3,24]quinolin-8-one] |  |  |  |  |  |  |  |  | 2800 ± 300 | 2000 ± 200 | 3100 ± 400 | 2500 ± 200 | 4200 ± 700 | 1800 ± 100 | 1600 ± 200 | 1200 ± 200 |  |  | 
CCOC(=O)c1cc2c(n1Cc1ccc(OC)cc1)-c1[nH]c(=O)c(S(=O)(=O)c3ccccc3)cc1CC2 [Compound 9m, Ethyl 1-(p-methoxy-benzyl)-7-(phenylsulfonyl)-1,4,5,9-tetrahydro-8H-pyrrolo[3,24] quinolin-8-one-2-carboxylate] |  |  |  |  |  |  |  |  | 1100 ± 100 | 1000 ± 200 | 1000 ± 100 | 900 ± 100 | 1600 ± 200 | 1400 ± 200 | 800 ± 100 | 700 ± 100 | submicromolar | increase of cell percentage with collapsed mitochondrial potential | do not induce DNA photodamage
CCOC(=O)c1cc2c(n1Cc1ccccc1)-c1[nH]c(=O)c(S(=O)(=O)c3ccccc3)cc1CC2 [Compound 9k, Ethyl 1-benzyl-7-(phenylsulfonyl)-1,4,5,9-tetrahydro-8H-pyrrolo[3,2-h]quinolin-8-one-2-carboxylate] | 900 ± 100 | 800 ± 100 | 900 ± 100 | 600 ± 100 | 900 ± 100 | 800 ± 100 | 800 ± 100 | 600 ± 100 |  |  |  |  |  |  |  |  | submicromolar | increase of cell percentage with collapsed mitochondrial potential | do not induce DNA photodamage
CCOC(=O)c1cc2c(n1Cc1ccc(C)cc1)-c1[nH]c(=O)c(S(=O)(=O)c3ccccc3)cc1CC2 [Compound 9l, Ethyl 1-(p-methyl-benzyl)-7-(phenylsulfonyl)-1,4,5,9-tetrahydro-8H-pyrrolo[3,2-h] quinolin-8-one-2-carboxylate] | 1600 ± 200 | 1000 ± 200 | 1200 ± 300 | 1000 ± 100 | 1700 ± 300 | 1500 ± 200 | 1500 ± 200 | 1200 ± 100 |  |  |  |  |  |  |  |  |  |  | 
Cn1ccc2c1-c1[nH]c(=O)c(S(=O)(=O)c3ccccc3)cc1CC2 [Compound 9d, 1-Methyl-7-(phenylsulfonyl)-1,4,5,9-tetrahydro-8H-pyrrolo[3,2-h]quinolin-8-one] | > 20000 | > 20000 | > 20000 | > 20000 | > 20000 | > 20000 | > 20000 | > 20000 |  |  |  |  |  |  |  |  |  |  | 
O=c1[nH]c2c(cc1S(=O)(=O)c1ccccc1)CCc1ccn(Cc3ccccc3)c1-2 [Compound 9e, 1-Benzyl-7-(phenylsulfonyl)-1,4,5,9-tetrahydro-8H-pyrrolo[3,2-h]quinolin-8-one] | 2600 ± 200 | 2200 ± 200 | 4800 ± 500 | 3300 ± 500 | 4000 ± 600 | 1700 ± 700 | 1300 ± 200 | 1100 ± 100 |  |  |  |  |  |  |  |  |  |  | 
